# How the values were obtained:
# bFGF mRNA = test: Retinal bFGF mRNA upregulation, Northern blot after single IP injection; settings: single IP injection 20 mg/kg; retina harvested after 12 hours in the dark; bFGF/18S
# CNTF mRNA = test: Retinal CNTF mRNA upregulation, Northern blot after single IP injection; settings: single IP injection 20 mg/kg; retina harvested after 12 hours in the dark; CNTF/18S
# [1] = Light damage paradigms: prevention of light-induced functional or morphological changes; format: in vivo; settings: applicant's light damage paradigms
# Male Sprague Dawley rats [2] = test: Photo-oxidative (blue-light) induced retinopathy, systemic IP dosing, ERG; settings: for Protection of retina function against light-induced retinal degeneration: 20 and 40 mg/kg IP; for Persistence of protection after a 4-week recovery period: IP dosing
# Excerpt: The purpose of Experiment 1 was to determine if selective β-adrenoceptor antagonists, in particular betaxolol (racemic), levobetaxolol (S-isomer), and betaxolol (R-isomer) are neuroprotective and can rescue retinal cells from a photo-oxidative induced retinopathy. The purpose of Experiment 2 was to determine the dose-dependent efficacy of timolol, a potent non-selective β1- and β2-blocker, in this photo-oxidative stress model. Male Sprague Dawley rats were randomly assigned to drug or vehicle experimental groups. Rats received three intraperitoneal (IP) injections of either vehicle or drug at 48, 24, and 0 hours prior to a 6-hour light exposure to spectrally filtered blue light (˜220 fc). Control rats were housed in their home cage under normal cyclic light exposure. Control rats were not dosed with either vehicle or drug. The ERG is a non-invasive clinical measurement of the electrical response of the eye to a flash of light. The a-wave and b-wave are two components of the ERG that are diagnostic of retinal function. The a-wave reflects outer retina function and is generated by interactions between photoreceptor and RPE while the b-wave reflects inner retina function, particularly on-bipolar cells. […] Changes in the a-wave amplitude or latency are diagnostic of outer retina pathology. The ERG was recorded after a five day recovery period from dark-adapted anesthetized rats (ketamine-HCl, 75 mg/Kg; xylazine, 6 mg/Kg). The eye's electrical response to a flash of light was elicited by viewing a ganzfeld. ERGs to a series of light flashes increasing in intensity were digitized to analyze temporal characteristics of the waveform and response voltage-log intensity relationship.
# rabbit inner retina = settings: in vitro; literature; cited from earlier work
# chick retinal cells = settings: in vitro; literature; cited from earlier work
# cortical cultures = settings: in vitro; literature; cited from earlier work
# [3] = tested on: rat ischemia/reperfusion injury model; settings: literature; cited from earlier work
# Male Sprague Dawley rats [4] = settings: 0.5% topical ocular b.i.d.; for Protection of retinal function compared to vehicle dosed rats: two drops per eye, 17 days before and 2 days after light exposure, ERG five days after
# Description: The purpose of this experiment was to determine the degree of retinal protection that could be measured in rats following topical ocular dosing. Levobetaxolol (0.5%), (racemic) betaxolol (0.5%), and vehicle were evaluated in the photic retinopathy model. Induction of photochemical lesions and evaluation of retinal function with the ERG were performed as described in the photo-oxidative induced retinopathy paradigm used in Example 1.
# Male Sprague Dawley rats were randomly assigned to either a vehicle dosed group (N=10), (racemic) betaxolol (0.5%) dosed group (N=10) or levobetaxolol (0.5%) dosed group (N=10). Rats were dosed topical ocular (b.i.d.) with two drops per eye. Rats were pre-dosed for 17 days prior to light exposure and dosed an additional two days after the light exposure. Control rats (N=4) were housed in their home cage under normal cyclic light exposure.
# [5] = tested on: P23H mutant rhodopsin transgenic rats
# Description: The P23H rhodopsin mutated transgenic rat has a specific rhodopsin mutation that has been identified in subsets of patients with RP. This degeneration is characterized by a slow degeneration of retinal photoreceptors and marked reduction in the electroretinogram. As in light damage, photoreceptor loss is primarily through an apoptotic process.
# At the time of weaning, rats are randomly assigned to either a drug or vehicle group. Rats were dosed (oral gavage) with vehicle or levobetaxolol (40 mg/kg,) every other day. […] ERGs were recorded as described in Example 1.
smiles,measurement,setting,value
Brc1c(NC2=NCCN2)ccc2nccnc12 [brimonidine],Increase in bFGF mRNA expression,bFGF mRNA,14 fold
same,"CNTF mRNA expression upregulation, factor compared to background expression",CNTF mRNA,not upregulated
COCCOC(=O)C1=C(C)NC(C)=C(C(=O)OC(C)C)C1c1cccc([N+](=O)[O-])c1 (stereo not shown) [nimodipine],Effectiveness in preventing light-induced functional or morphological changes,[1],no effect
"CC(C)NCC(O)COc1ccc(CCOCC2CC2)cc1 (stereo not drawn) [Betaxolol (R-isomer), betaxolol]",Protection of retina function against light-induced retinal degeneration,Male Sprague Dawley rats [2]; 5-day recovery,Partial but significant protection
same,"ERGs, % of normal",Male Sprague Dawley rats [2]; 20 or 40 mg/kg IP,approximately 64%
same,Persistence of protection after a 4-week recovery period,Male Sprague Dawley rats [2],persisted
Fc1ccc(C(c2ccc(F)cc2)N2CCN(C/C=C/c3ccccc3)CC2)cc1 [flunarizine],Effectiveness in preventing light-induced functional or morphological changes,[1],moderately effective
"CC(C)NCC(O)COc1ccc(CCOCC2CC2)cc1 (racemic) [betaxolol (racemic), betaxolol]","Maximum a-wave response amplitude, fold higher than vehicle dosed rats","Male Sprague Dawley rats [2]; 20 mg/kg IP at 48, 24, 0 h before 6-hour blue light, 5-day recovery",1.9 fold
same,"Maximum a-wave response amplitude, fold higher than vehicle dosed rats","Male Sprague Dawley rats [2]; 40 mg/kg IP at 48, 24, 0 h before 6-hour blue light, 5-day recovery",2.1 fold
same,Protection of retina function against light-induced retinal degeneration,Male Sprague Dawley rats [2]; 5-day recovery,dose-dependent protection
same,Changes in GABA immunoreactivity following glucose-oxygen deprivation,rabbit inner retina,partially inhibited
same,Kainate induced elevation of intracellular calcium,chick retinal cells,prevent
same,Glutamate-induced release of lactate dehydrogenase,cortical cultures,partially prevented
same,ERG b-wave deficit after ischemia/reperfusion,[3],protected
same,ERG response amplitudes vs vehicle dosed rats,Male Sprague Dawley rats [4],higher but not significantly different
same,Protection of retinal function compared to vehicle dosed rats,Male Sprague Dawley rats [4],No significant protection
CC(C)NC[C@H](O)COc1ccc(CCOCC2CC2)cc1 [levobetaxolol],ERG amplitude relative to vehicle-dosed rats,"Male Sprague Dawley rats [2]; 20 mg/kg IP, 5-day recovery",twice
same,"ERG amplitudes, % of normal","Male Sprague Dawley rats [2]; 20 mg/kg IP, 5-day recovery",69%
same,Protection of the retinal response to a flash of light,"Male Sprague Dawley rats [2]; 40 mg/kg IP, 5-day recovery",Complete protection
same,Protection of retina function against light-induced retinal degeneration,Male Sprague Dawley rats [2]; 5-day recovery,significant protection
same,Persistence of protection after a 4-week recovery period,Male Sprague Dawley rats [2],persisted
same,Increase in bFGF mRNA expression,bFGF mRNA,13 fold
same,"CNTF mRNA expression upregulation, factor compared to background expression",CNTF mRNA,2.3
same,"Outer retinal function, % better than vehicle dosed rats","[5]; 40 mg/kg oral every other day, 6-month old rats",32%
same,Loss of retinal function compared to vehicle dosed rats,"[5]; 40 mg/kg oral gavage every other day, 3- and 6-month old rats",significantly attenuated
same,Amelioration of photic induced retinopathy (retinal function vs control rats),Male Sprague Dawley rats [4],completely to ameliorated
same,Protection of retinal function compared to vehicle dosed rats,Male Sprague Dawley rats [4],significant protection
Cc1c(C)c2c(c(C)c1O)CC[C@@](C)(CCC[C@H](C)CCC[C@H](C)CCCC(C)C)O2 [alpha-tocopherol],Effectiveness in preventing light-induced functional or morphological changes,[1],ineffective

# Source: US8710102B2, “Use of beta-adrenoceptor antagonists for the manufacture of a medicament of the treatment of disorders of the outer retina” (Novartis AG, priority 1999, dated 2014)
